“And” between values parts separate entries of the source, which are not always exact repeats. Identical values can stand only once.
test system: M. bovis BCG; assay: microbe, parasite or virus in culture; assay type: cell-based, Mycobacterium bovis DSM-43990 (BCGT); details: not given

Structure (SMILES) | MIC50 relative to KD (MIC50 = x × KD)
C=CC(c1ccc(-c2ccc(OC)c(C)c2)cc1)n1ccnc1 (stereo not drawn) [Compound S4, 1‐(1‐(4’‐methoxy‐3’‐methyl‐[1,1’‐biphenyl]‐4‐yl)allyl)‐1H‐imidazole] | > 2
C=CC(c1ccc(-c2ccc(OC)c(OC)c2)cc1)n1ccnc1 (stereo not drawn) [Compound S3, 1‐(1‐(3’,4’‐dimethoxy‐[1,1’‐biphenyl]‐4‐yl)allyl)‐1H‐imidazole] | > 2
C=CC(c1ccc(-c2ccc3c(c2)OCO3)cc1F)n1ccnc1 (stereo not drawn) [Compound S8] | > 2
C=CC(c1ccc(-c2ccc3c(c2)OCO3)cc1)n1ccnc1 (stereo not drawn) [Compound S5, 1‐(1‐(4‐(benzo[d][1,3]dioxol‐5‐yl)phenyl)allyl)‐1H‐imidazole] | > 2
C=CC(c1ccc(-c2ccc3[nH]ccc3c2)cc1)n1ccnc1 (stereo not drawn) [Compound S10, 5‐(4‐(1‐(1H‐imidazol‐1‐yl)allyl)phenyl)‐1H‐indole] | > 2

same assay, conditions: Mycobacterium tuberculosis variant bovis BCG, BCG, read-out: MIC50

Structure (SMILES) | IC50
Clc1ccc(COC(Cn2ccnc2)c2ccc(Cl)cc2Cl)cc1 (stereo not drawn) [Econazole, reference compound] | 2.6 µg/mL and 12.7 µM
